# Experimental data reported in patent US7658706B2, “Vascular graft sterilization and decellularization” (RTI Biologics, Inc., priority 2005, dated 2010).
# Like-named read-outs stand apart in the source and are kept apart here.
# Columns and labels:
# [1] = test system: B. stearothermophilus spores; assay: Suspension sterilization: survivor/reduction curves for spores in germicide; assay type: cell-based, Bacillus stearothermophilus
# Source text: The effectiveness of a sterilant is defined in terms of decimal reduction time (D-value). This is the exposure time (t) used under certain conditions to cause one log reduction (n) (90%) of the initial population. A suspension is expected to follow a predictable death rate regarding a plot of the amount of survivors over time. The negative reciprocal of the slope of regression lines of survivor curves gives the D-value where t=D×n n=[…]
# (§1) In order to determine the reduction in spores after processing with cleaning agents, an effective and consistent method was developed. […] It was determined that residual hydrogen peroxide inhibited the growth at concentrations of 0.6% or higher for TSA plates and 6% or higher for blood plates (FIG. 12). It is believed that the catalase contained in the blood agar plates inactivated the hydrogen peroxide. […] Even though the blood agar plates allowed for dilutions as low as 1:10, the titre used was too low to detect more than a 3 log reduction in the process limiting the data collection for the survivor curves.
# To ensure consistency, each vial was vortexed before each replicate and all of the material was removed from the pipette tip onto the plate. Disposable plate spreaders were used to prevent cross contamination. The moisture needed to be maintained at a certain level because the plates would dry out at 60° C., but if there was too much moisture the bacteria would streak across the plate and prevent an accurate count. The first procedure implemented was propping the plates open in a laminar flow hood to allow excessive moisture to dry. The second method employed was placing the plates in a beaker with a porous covering to trap some moisture while allowing the excess to evaporate.
# Hydrogen peroxide at a concentration of 6% was used at temperatures of 40, 45 and 50° C. to calculate a curve for modeling the temperature effects on spore kill. […] Samples were removed and immediately placed in an ice bath at 10, 15, 20 and 30 min. The vial was well-mixed on a vortex, and then diluted 1:10 in series before plating.
# Peracetic acid at concentrations of 0.1%, 0.05% and 0.005% were used only at 40° C. to calculate a curve for modeling the concentration effects on spore kill. […] Samples were removed and immediately placed in an ice bath at various time points depending on the concentration. The vial was well-mixed on a vortex, and then diluted 1:10 in series before plating.
# (§2) Typically, a survivor curve is constructed with the initial population at time zero and the resultant populations at various time points. Since not all data points could be completed in the same day, some reduction curves were constructed to compare log reduction in the controls for each experiment over time. This normalized the data to its own experimental episode.
# [2] = test system: Bacillus stearothermophilus; assay: Growth inhibition by residual germicide on TSA and blood agar plates; assay type: cell-based
# Procedure: as §1
# collagen = assay: Collagen denaturation, quantitative enzyme digestion assay (matrix integrity)
# Procedure: One of the major structural components of the extracellular matrix that gives veins their strength is collagen. Damage to collagen can result in mechanical failures such as increased compliance or aneurism formation. It can also result in a cellular response due the exposure of the triple helix when stability is compromised. The amount of collagen denaturation was assessed to evaluate processing conditions with a quantitative enzyme digestion assay. […] Digested and undigested fractions are separated and hydrolyzed with concentrated hydrochloric acid (HCl) to release free amino acids from each fraction. Following neutralization of the acid in 1 N NaOH, levels of hydroxyproline (an amino acid present in high concentrations in collagen) are assessed in each fraction by a calorimetric method at a wavelength of 550 nm (Chloramine T binding, and reduction of the substrate DAB to a colored end product). The level of denatured collagen in a given sample is then expressed as a percent of the trypsin soluble fraction to the sum of both trypsin soluble and trypsin insoluble fractions.
# Achieving the appropriate log reduction should not come at the expense of the integrity of the extracellular matrix. […] The effect of hydrogen peroxide at 6% at 40° C. and 50° C. on collagen was compared to PAA at 0.1% at the same specified temperatures.
# Digested and undigested fractions are separated and hydrolyzed with concentrated hydrochloric acid (HCl) to release free amino acids from each fraction. Following neutralization of the acid in 1 N NaOH, levels of hydroxyproline (an amino acid present in high concentrations only in collagen) are assessed in each fraction by a calorimetric method (Chloramine T binding, and reduction of the substrate DAB to a colored end product). The level of denatured collagen in a given sample is then expressed as a percent of the trypsin soluble fraction to the sum of both trypsin soluble and trypsin insoluble fractions.
# [3] = Bradford Assay of nonspecific proteins in collagenase digested vein samples; set-up: species or system human; conditions: 0.1% peracetic acid versus 6% hydrogen peroxide (FIGS. 29, 30)
# Procedure: In a further study, the efficiency of peracetic acid (PAA) versus hydrogen peroxide (HP) was investigated. Samples were treated in either 0.1% PAA or 6% HP and were exposed for varying lengths of time at varying temperatures.
# Without wishing to be bound by theory, it is believed that the peracetic acid opens the collagen matrix up to allow for greater penetration of the tissue. It also believed to break down the proteins better than hydrogen peroxide. […] The Bradford Assay (Bradford, 1976) is used to quantify nonspecific proteins in collagenase digested vein samples. The Bradford Assay is a general protein assay, is based on an absorbance shift in a dye (Coomassie brilliant blue G-250 dye (CBBG)). CBBG has an absorbance shift when bound to arginine and hydrophobic amino acid residues (e.g., tryptophan, tyrosine, histidine and phenylalanine) present in protein. The reduction in antigenicity is correlated in the immunohistochemical staining (e.g., groups L and K from Example 5) and the histopathology scores (e.g., prototype recipe from Example 4).
# [4] = test system: class I MHC antigens in human saphenous vein; assay: Immunohistochemical stain for class I MHC antigens after decellularization (Example 1)
# Procedure: The effectiveness of cell and cellular debris removal was evaluated using two detergent and two enzyme solutions at various concentrations (Table 2). […] One treatment group combined Triton-X 100 with sodium deoxycholate. Trypsin alone at 0.05% (w/v) or 1.0% (w/v) and in combination with 0.02% (w/v) EDTA were the enzyme solutions used in the decellularization process.
# (§3) Samples were then rinsed in PBS at room temperature for 10 minutes while continuously shaking. Following the rinse step, the samples were cut in half and either prepared for histology or immunohistochemistry.
# Immunohistochemistry was used to determine the level of antigens remaining in the tissue after treatment. […] Samples were prepared in frozen blocks and sectioned with a cryostat. The sections were thawed and then rinsed for blocking and antibody staining. Sections were incubated for 30 minutes in primary antibody (mouse anti-HLA-ABC class I MHC) solution and then for anther 30 minutes in diluted biotinylated secondary antibody (Vector ABC Elite kit) solution. An enzyme substrate, NovaRed (Vector), was used to stain the antibodies red. The counter stain was hematoxylin providing a blue contrast.
# A Zeiss Axiophot 2 microscope with a motorized Ludl scanning stage was used with tile field mapping at 5× to capture the entire image in one frame. Particle analysis was performed in Image J to determine the ratio of antigen staining (red) to the total tissue sample.
# A blue and green filter was applied to only allow red to pass. Obvious areas of antigen staining were removed due to this variation in red hue. […] All samples were compared to their negatives for a percentage of red staining.
# This procedure was applied to all images. […] The treatment groups are labeled according to the detergent or enzyme used followed by the processing conditions. For the Trypsin and Trypsin+EDTA groups, the concentrations ranged from 0.05% (L) to 1.0% (H), the processing temperatures were 37° C. (L), 48° C. (M) and 55° C. (H), and the processing times were 6 hrs (L), 17 hrs (M) and 24 hrs (H).
# human saphenous vein = assay: Histology (H&E) for cellularity and matrix (Example 1); conditions: 0.05% Trypsin, 37° C., 6 or 24 hours (FIGS. 7, 8)
# Procedure: as §3, with “Samples of human saphenous veins 10 mm in length were placed in each of the test solution at 37° C. or 48° C. for both 6 and 24 hours while continuously shaking. Samples” for “Samples”
# Samples were placed in 10% buffered formalin immediately following the rinse step and remained there for at least 24 hours before further preparation. Then, the samples were embedded in paraffin and stained with hematoxylin and eosin (H&E) to determine cellularity.
# The results of the immunohistochemical stain were compared to histology slides stained for cellularity (FIGS. 7 to 10). […] The extracellular matrix is preserved in each segment except with 1.0% Cholate at 48° C.
# [5] = test system: B. stearothermophilus spores
# Procedure: Before enumerating the population remaining on tissue following chemical processing, the amount recoverable from the tissue must be determined. The recovery process developed involves the use of sonication, mechanical shaking and agitation on a vortex. Veins were cut into 30 mm segments and clamped at one end. […] The samples were then cut from the clamps and split open over a centrifuge tube containing 39.9 ml of Letheen broth to expose the lumen to the recovery process. A new pair of scissors or a new scalpel blade were used for each vein and the segments were cut over the broth to catch anything that may not have adhered to the surface of the tissue.
# The tubes were sonicated at room temperature for ten minutes to break the bacteria from the surfaces. The tubes were then placed on a shaker where they were for another 10 min. The Letheen broth containing the tissue sample was then vortexed for 30 s and diluted in a series of 1:10 dilutions with each dilution plated on blood agar plates. The plates were incubated overnight at 60° C.
# The procedure for spike recovery was used to collect data for the reduction curves. Vein segments were inoculated and then treated in one of the following conditions. Hydrogen peroxide (6%) was analyzed at 40° C. and 50° C. while peracetic acid (0.1%) was only tested at 40° C. At each time point, three samples were spiked and treated with one control for recovery efficiency.
# as §2
# A control was used at each experimental episode to provide a correction factor for the treated samples. The recovered population divided by the correction factor provides the surviving population after treatment.
# B. stearothermophilus [6] = conditions: 6% in DI water, PBS (pH 6) or PBS (pH 7.2), 45° C., sonication
# Procedure: In a separate study, 6% hydrogen peroxide was prepared in either DI water, PBS (pH 6) or PBS (pH 7.2). It was then used at 45° C. to treat B. stearothermophilus while under sonication.
# [7] = test system: enteric bacteria (E. coli, Enterococcus faecalis or Salmonella enteritidis); conditions: peroxide doses of 0.3 to 15%, 10 min; cited from earlier work
# B. subtilis = conditions: hydrogen peroxide alone, 25° C.; cited from earlier work
# [8] = test system: Bacillus atrophaeus spores; conditions: 7.5% hydrogen peroxide, room temperature, 6 hour incubation; cited from earlier work
# B. stearothermophilus [9] = conditions: 26.5% hydrogen peroxide, 25° C.; cited from earlier work
# [10] = test system: human greater saphenous vein; conditions: 0.075% SDS; cited from earlier work
molecule,measurement,setting,value
CC(=O)OO [peracetic acid],D-value,"[1]; 0.005% PAA, 40° C., spores in suspension (FIG. 19)",6.45
same,D-value,"[1]; 0.05% PAA, 40° C., spores in suspension (FIG. 18)",1.90
same,time for a 6 log reduction,"[1]; 0.05% PAA, 40° C., suspension",11 minutes
same,growth inhibition by residual germicide,"[2]; within the processing concentrations, blood agar plates (FIG. 13)",no inhibition was observed
same,amount of digestible hydroxyproline,"collagen; 0.1% PAA (FIGS. 31, 32)",did not increase the amount of digestible hydroxyproline
same,ratio of degraded collagen compared to untreated controls,"collagen; 6% hydrogen peroxide, 0.1% PAA, 50° C., one hour (FIG. 22)",significantly altered matrix properties
same,efficiency in breaking down proteins,[3],more efficient than 6% hydrogen peroxide in significantly breaking down proteins
octylphenol ethoxylate [Triton],collagen degradation compared to untreated controls,"collagen; Triton 1.0%, Cholate 0.25%, 48° C., 24 hours, constant agitation (FIG. 11)",A significant degradative effect was not seen
Trypsin,level of antigens,"[4]; 1.0% Trypsin or 1.0%/0.02% Trypsin/EDTA, minimum of 48° C. and 17 hrs",significantly reduced the level of antigens
same,cellularity in histology,human saphenous vein,still evidence of cells
same,collagen degradation compared to untreated controls,collagen,less than half of the degradation of the untreated controls
OO [hydrogen peroxide],D-value,"[1]; 6% peroxide, 40° C., spores in suspension (FIG. 16)",47.39
same,time for a 6 log reduction,"[1]; 6% peroxide, 40° C., suspension",~5 hours
same,D-value,"[1]; 6% peroxide, 45° C., spores in suspension (FIG. 15)",23.0
same,D-value,"[1]; 6% peroxide, 50° C., spores in suspension (FIG. 14)",9.87
same,time for a 6 log reduction,"[1]; 6% peroxide, 50° C., suspension",less than an hour
same,reduction of the D-value by an increase in temperature,"[1]; 6% peroxide, from 40° C. to 50° C., suspension",approximately 80%
same,time for a 6 log reduction,"[5]; 6% hydrogen peroxide, 50° C., spiked tissue",less than 40 minutes
same,D-value,"[5]; 6% hydrogen peroxide, 50° C., spiked tissue (FIG. 20)",6.63
same,D-value with tissue,"[5]; 6% peroxide with tissue, temperature not stated",5.34
same,D-value,"[5]; 6% peroxide, 40° C., spiked tissue (FIG. 21)",15.17
same,decrease of D-value with tissue versus suspension,"[5]; 6% peroxide, temperature not stated",approximately 4 minutes
same,residual concentration that inhibited the growth,[2]; TSA plates,≥ 0.6%
same,residual concentration that inhibited the growth,[2]; blood plates,≥ 6%
same,effect of buffer/pH on sterilizing,B. stearothermophilus [6],a buffered solution may be more effective
same,ratio of degraded collagen compared to untreated controls,collagen,significantly altered matrix properties
same,log microbial reductions,[7],below 0.2 log
same,D-value,B. subtilis,55.2 min
same,growth of spores,[8],No growth was detected
same,D-value,B. stearothermophilus [9],4.7 min
"CCCCCCCCCCCCOS(=O)(=O)[O-].[Na+] [SDS, sodium dodecyl sulfate]",transmural cell removal,[10],> 94%
O=C(O)CN(CCN(CC(=O)O)CC(=O)O)CC(=O)O [EDTA],effect of addition of EDTA on removal of cells,"[4]; added to Triton at 0.25%, 6 hours, 37° C.",enhance the removal of cells
same,effect of addition of EDTA on removal of antigens,[4]; added to Trypsin,inconsistent effect
